Seven compounds from ChEMBL document CHEMBL1126002, “Interphenylene 7-oxabicyclo[2.2.1]heptanes. SQ33,961: a new potent, long-acting thromboxane antagonist” (Bioorg Med Chem Lett, 1991) can be followed below.

One assay is filed under the species Homo sapiens. The assay can be described thus: Compound was evaluated for the ability to inhibit […] induced platelet aggregation (U-IPA) in human platelet rich plasma. Type of assay: functional. The settings on record: read-out: I50.
Take `O=C(O)CCc1ccccc1CC1C2CCC(O2)C1c1nc(C(=O)NCCCCC2CCCCC2)co1` (stereo unspecified): the IC50 was 6 nM.

Turning to `O=C(O)CCc1ccccc1CC1C2CCC(O2)C1c1nc(C(=O)NCCCCc2ccc(Cl)cc2)co1` (stereo unspecified), the IC50 was 13 nM.

Take `CC(C)(C)CCCCCCNC(=O)c1coc(C2C3CCC(O3)C2Cc2ccccc2CCC(=O)O)n1` (stereo unspecified): the IC50 was found to be 5 nM.

With `CCCCCCCNC(=O)c1coc(C2C3CCC(O3)C2Cc2ccccc2CCC(=O)O)n1` (stereo unspecified), the IC50 worked out at 13 nM.

Consider `CCCCCCCCCCNC(=O)c1coc(C2C3CCC(O3)C2Cc2ccccc2CCC(=O)O)n1` (stereo unspecified), for which the IC50 worked out at 6 nM.

Regarding `O=C(O)CCc1ccccc1CC1C2CCC(O2)C1c1nc(C(=O)NC2CCCCC2)co1` (stereo unspecified), the IC50 stood at 25 nM.

As to `CNC(=O)c1coc(C2C3CCC(O3)C2Cc2ccccc2CCC(=O)O)n1` (stereo unspecified), the IC50 was 81 nM.

For the next assay, the species on record is Homo sapiens. The assay can be described thus: Compound was evaluated for the ability to inhibit arachidonic acid induced platelet aggregation (AAIPA) in human platelet rich plasma. The following applies: read-out: I50. Type of assay: functional.
For the compound `O=C(O)CCc1ccccc1CC1C2CCC(O2)C1c1nc(C(=O)NCCCCC2CCCCC2)co1` (stereo unspecified), the IC50 amounted to 2 nM.

Consider `O=C(O)CCc1ccccc1CC1C2CCC(O2)C1c1nc(C(=O)NCCCCc2ccc(Cl)cc2)co1` (stereo unspecified), for which the IC50 came out at 4 nM.

Turning to `CC(C)(C)CCCCCCNC(=O)c1coc(C2C3CCC(O3)C2Cc2ccccc2CCC(=O)O)n1` (stereo unspecified), the IC50 is 3 nM.

For the compound `CCCCCCCNC(=O)c1coc(C2C3CCC(O3)C2Cc2ccccc2CCC(=O)O)n1` (stereo unspecified), the IC50 worked out at 2 nM.

For the compound `CCCCCCCCCCNC(=O)c1coc(C2C3CCC(O3)C2Cc2ccccc2CCC(=O)O)n1` (stereo unspecified), the IC50 was found to be 1 nM.

Take `O=C(O)CCc1ccccc1CC1C2CCC(O2)C1c1nc(C(=O)NC2CCCCC2)co1` (stereo unspecified): the IC50 is 3 nM.

For the compound `CNC(=O)c1coc(C2C3CCC(O3)C2Cc2ccccc2CCC(=O)O)n1` (stereo unspecified), the IC50 turned out to be 20 nM.

In another assay the test system is Mus musculus. The assay can be described thus: Compound (0.2 mpk/po) was evaluated for the ability to protect from U-46,619 induced lethality in mice as a function of time one half of the population survives from time of dosage. Format: functional.
Conditions: not given
Turning to `O=C(O)CCc1ccccc1CC1C2CCC(O2)C1c1nc(C(=O)NCCCCC2CCCCC2)co1` (stereo unspecified), the T50 worked out at 23 h.

A further assay addresses T1, Thromboxane A2 receptor (Homo sapiens, UniProt P21731).
T1 sequence (P21731 whole entry): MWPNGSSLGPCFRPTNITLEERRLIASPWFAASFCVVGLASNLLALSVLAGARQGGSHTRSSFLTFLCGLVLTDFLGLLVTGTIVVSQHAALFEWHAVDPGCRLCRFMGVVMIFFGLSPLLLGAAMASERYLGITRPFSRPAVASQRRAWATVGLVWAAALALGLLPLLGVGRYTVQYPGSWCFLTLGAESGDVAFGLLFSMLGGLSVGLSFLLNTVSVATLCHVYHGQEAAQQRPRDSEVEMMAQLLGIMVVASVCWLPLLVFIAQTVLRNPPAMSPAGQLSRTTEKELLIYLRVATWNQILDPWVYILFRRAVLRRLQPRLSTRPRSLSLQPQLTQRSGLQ
Nature of the assay: Compound was evaluated for the receptor binding studies with Thromboxane A2 receptor using [3H]-SQ 29548 as radioligand in human platelet membranes. Format: cell membranes.
Conditions: not given
For orientation: Kd means the concentration at which binding is half-saturated. Low values mean tighter binding, high ones weaker binding. In turn, `O=C(O)CCc1ccccc1CC1C2CCC(O2)C1c1nc(C(=O)NCCCCC2CCCCC2)co1` (stereo unspecified) yielded a Kd of 0.1 nM.
